Data published in patent US20110306606A1, “NOVEL 2,6-SUBSTITUTED-3-NITROPYRIDINE DERIVATIVE, METHOD FOR PREPARING SAME, AND PHARMACEUTICAL COMPOSITION INCLUDING SAME” (priority 2008, published 2011).
“And” between values parts separate entries of the source, which are not always exact repeats. Equal values may be shown once. Read-outs that look alike come from different tables or passages of the source.

What was measured:
[1] = tested on: Osteoblasts (Calvarial cells); assay: Alkaline phosphatase (ALP) activity in osteoblasts (Calvarial cells); format: cell-based, mice; details: 1 μM compound, 3 days; for activity at 1 µM: Mus musculus, 72 h, Calvarial cell, read-out: ALP activity (1 μM, % of Control) Calvarial cell
How it was run: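 Primary calvarial osteoblasts or MC3T3-E1 cells in α-MEM with 10% FBS were treated with 1 μM compound, against a 0.1% DMSO vehicle. Cell lysates were incubated with p-nitrophenylphosphate at 37° for 30 minutes and read at 405 nm. ALP activity was expressed as p-nitrophenol/μg protein/min and reported as % change versus vehicle.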

[2] = tested on: Osteoblasts (Calvarial cells); details: ICR, mouse, 72 h, 1 μM
[3] = tested on: formation of osteoclasts in co-culture of bone marrow cells and osteoblasts; assay: Osteoclastogenesis inhibition via co-culture system (TRAP staining); format: cell-based, mice; details: 1 μM compound, 7 days co-culture, TRAP-positive multinucleated osteoclasts vs vehicle control; for inhibition at 1 µM: Mus musculus, Osteoclast, 168 h
How it was run: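 Bone marrow cells from male ddY mice were co-cultured with osteoblasts for 7 days in α-MEM/10% FBS with 10^−8 M 1α,25-dihydroxyvitamin D3 and dexamethasone. Compound was present at 1 μM final and refreshed every 2–3 days. TRAP-positive cells with 6–7 nuclei were counted, with % inhibition relative to DMSO vehicle (n=4).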

[4] = tested on: Osteoblasts (Calvarial cells); assay: Cytotoxicity test (MTT); details: 1 μM compound, 72 hours, in comparison with vehicle control

SMILES | activity at 1 µM [1] [%] | Cell viability (%) Calvarial cell [2] [%] | inhibition at 1 µM [3] [%] | ALP activity (1 μM, % of Control) Calvarial cell [1] | Cell viability (%) Calvarial cell [4] | Osteoclastogenesis inhibition (%) 1 μM [3] [%]
CC(C)(C)c1ccc(Nc2nc(N3CCC(N)CC3)ccc2[N+](=O)[O-])cc1 [Compound 43, 2-[4-(t-butyl)phenylamino]-6-(4-aminopiperidino)-3-nitropyridine] | 121 | 114 | 100 |  |  | 
CNc1ccc([N+](=O)[O-])c(Nc2ccc(-c3csc(C)n3)cc2)n1 [Compound 132, 2-[4-(2-methylthiazol-4-yl)phenylamino]-6-(methylamino)-3-nitropyridine] | 198 | 101 | 80 |  |  | 
O=[N+]([O-])c1ccc(N2CCNCC2)nc1Nc1ccc(N2CCOCC2)cc1 [Compound 120, 2-(4-morpholinophenylamino)-6-(piperazin-1-yl)-3-nitropyridine] | 115 | 94 | 63 |  |  | 
Cc1ccc(Nc2nc(N3CCC(N)CC3)ccc2[N+](=O)[O-])cc1 [Compound 13, 2-(4-methylphenylamino)-6-(4-aminopiperidino)-3-nitropyridine] | 115 | 97 | 92 |  |  | 
NC1CCN(c2ccc([N+](=O)[O-])c(Nc3ccc(N4CCOCC4)cc3)n2)CC1 [Compound 121, 2-(4-morpholinophenylamino)-6-(4-aminopiperidino)-3-nitropyridine] | 127 | 100 | 89 |  |  | 
O=[N+]([O-])c1ccc(NCc2cccnc2)nc1Nc1ccc(N2CCCCC2)c(F)c1 [Compound 229, 2-[(3-fluoro-4-piperidino)phenylamino]-6-[(3-pyridyl)methylamino]-3-nitropyridine] |  |  |  | 114 % of Control | 104% and 125% | 97
O=[N+]([O-])c1ccc(N2CCNCC2)nc1Nc1ccc(N2CCSCC2)c(F)c1 [Compound 213, 2-[(3-fluoro-4-thiomorpholino)phenylamino]-6-(piperazin-1-yl)-3-nitropyridine] |  |  |  | 121 % of Control | 95% | 94
CCN(CCO)c1ccc([N+](=O)[O-])c(Nc2ccc(-c3csc(C)n3)cc2)n1 [Compound 141, 2-[4-(2-methylthiazol-4-yl)phenylamino]-6-[(N-ethyl-2-hydroxy)ethylamino]-3-nitropyridine] |  |  |  | 129 % of Control | 102% | 82
O=[N+]([O-])c1ccc(NCc2ccncc2)nc1Nc1ccc(N2CCCCC2)c(F)c1 [Compound 230, 2-[(3-fluoro-4-piperidino)phenylamino]-6-[(4-pyridyl)methylamino]-3-nitropyridine] |  |  |  | 120 % of Control | 101% | 93
CC(C)CNc1ccc([N+](=O)[O-])c(Nc2ccc(N3CCNCC3)c(F)c2)n1 [Compound 217, 2-[(3-fluoro-4-piperazino)phenylamino]-6-(isobutylamino)-3-nitropyridine] |  |  |  | 119 % of Control | 92% | 94
CNc1ccc([N+](=O)[O-])c(Nc2ccc(N3CCCCC3)c(F)c2)n1 [Compound 223, 2-[(3-fluoro-4-piperidino)phenylamino]-6-(methylamino)-3-nitropyridine] |  |  |  | 247 % of Control | 100% | 82
Cc1nc(-c2ccc(Nc3nc(N4CCC(O)CC4)ccc3[N+](=O)[O-])cc2)cs1 [Compound 135, 2-[4-(2-methylthiazol-4-yl)phenylamino]-6-(4-hydroxypiperidino)-3-nitropyridine] | 113 | 106 | 93 |  |  | 
CC(=O)c1cccc(Nc2nc(N3CCNCC3)ccc2[N+](=O)[O-])c1 [Compound 106, 2-(3-acetylphenylamino)-6-(piperazin-1-yl)-3-nitropyridine] | 116 | 81 | 87 |  |  | 
CN1CCN(c2ccc([N+](=O)[O-])c(Nc3ccc(N4CCC(O)CC4)c(F)c3)n2)CC1 [Compound 244, 2-{[3-fluoro-4-(4-hydroxypiperidino)]phenylamino}-6-(4-methylpiperazin-1-yl)-3-nitropyridine] |  |  |  | 118 % of Control | 99% | 62
CC(C)CNc1ccc([N+](=O)[O-])c(Nc2ccc(N)cc2)n1 [Compound 59, 2-[4-(amino)phenylamino]-6-(isobutylamino)-3-nitropyridine] | 115 | 99 | 81 |  |  | 
Cc1nc(-c2ccc(Nc3nc(NCc4ccncc4)ccc3[N+](=O)[O-])cc2)cs1 [Compound 139, 2-[4-(2-methylthiazol-4-yl)phenylamino]-6-[(4-pyridyl)methylamino]-3-nitropyridine] | 122 | 95 | 99 |  |  | 
Cc1nc(-c2ccc(Nc3nc(NCc4cccnc4)ccc3[N+](=O)[O-])cc2)cs1 [Compound 138, 2-[4-(2-methylthiazol-4-yl)phenylamino]-6-[(3-pyridyl)methylamino]-3-nitropyridine] | 121 | 94 | 98 |  |  | 
Cc1nc(-c2ccc(Nc3nc(N4CCOCC4)ccc3[N+](=O)[O-])cc2)cs1 [Compound 145, 2-[4-(2-methylthiazol-4-yl)phenylamino]-6-morpholino-3-nitropyridine] | 117 | 96 | 94 |  |  | 
CC(C)CNc1ccc([N+](=O)[O-])c(Nc2ccc(N3CCCCC3)c(F)c2)n1 [Compound 225, 2-[(3-fluoro-4-piperidino)phenylamino]-6-(isobutylamino)-3-nitropyridine] |  |  |  | 150 % of Control | 90% | 60
CNc1ccc([N+](=O)[O-])c(Nc2ccc(N3CCNCC3)c(F)c2)n1 [Compound 215, 2-[(3-fluoro-4-piperazino)phenylamino]-6-(methylamino)-3-nitropyridine] |  |  |  | 125 % of Control | 104% | 91
O=[N+]([O-])c1ccc(N2CCOCC2)nc1Nc1ccc(N2CCCCC2)c(F)c1 [Compound 235, 2-[(3-fluoro-4-piperidino)phenylamino]-6-morpholino-3-nitropyridine] |  |  |  | 121 % of Control | 105% | 86
CC1=NCCN1c1ccc([N+](=O)[O-])c(Nc2ccc(N3CCCCC3)c(F)c2)n1 [Compound 227, 2-[(3-fluoro-4-piperidino)phenylamino]-6-[(2-methyl-4,5-dihydro)imidazol-1-yl]-3-nitropyridine] |  |  |  | 122 % of Control | 103% | 65
CC(=O)c1cccc(Nc2nc(NC(C)C)ccc2[N+](=O)[O-])c1 [Compound 97, 2-(3-acetylphenylamino)-6-(isopropylamino)-3-nitropyridine] | 188 | 114 | 80 |  |  | 
CC(C)CNc1ccc([N+](=O)[O-])c(Nc2ccc(N3CCOCC3)c(F)c2)n1 [Compound 193, 2-[(3-fluoro-4-morpholino)phenylamino]-6-(isobutylamino)-3-nitropyridine] |  |  |  | 114 % of Control | 98% | 81
